From US9644011B2 (priority 2005, dated 2017)

How the values were obtained:
[1] = system: mouse sciatic nerve; conditions: cited from earlier work
[2] = system: muscle strength of mice; conditions: mouse, in vivo

CCN(CC)CC(=O)Nc1c(C)cccc1C [lidocaine]
concentration necessary for similar inhibitory effect on mouse sciatic nerve [1]: Millimolar concentrations

CCN(CC)CCOC(=O)c1ccc(N)cc1 [procaine]
time to decrease of 50% of the relative strength [2]: ~10 min
